Experimental data taken from patent US12408664B2 (priority 2018, dated 2025).
Where two headings read alike, the source gives them in different places.

Legend:
S. homoeocarpa [1] = test: Zone of inhibition assay on PDA plates; type: cell-based, Scerotinia homoeocarpa
Protocol: (§1) To test the efficacy of calcium propionate (CaP) against the four microbes listed above, zone of inhibition assays were performed. Wells were bored in potato dextrose agarose (PDA) plates then amended with […] calcium propionate at concentrations of 0.1%, 0.2%, 0.3%, 0.4%, and 0.5% (w/v). Control plates were amended with […] dH2O. Plates were inoculated using plugs from active cultures. Growth patterns were observed over seven days. Representative results with M. poae are shown at three days following inoculation (FIG. 1A) and seven days following inoculation (FIG. 1B).
(§2) The zone of inhibition assays described in Example 1 were performed using calcium propionate doses of 0.5%, 1%, 2%, 3%, and 4% (w/v). Growth diameter was recorded at 2, 5, and 7 days post inoculation. The data shown in Table 1 represent the average±standard deviation (SD) of two replicate plates for each strain tested.
(§3) Zone of inhibition assays using PDA plates amended with 5-12% (w/v) calcium propionate were performed as described above. As a control, plates were amended with a composition comprising propiconazole, a commonly used fungicidal treatment for microbe infection of turfgrass, sold under the trademark Banner MaxxII®. Growth diameter was recorded for 13 days post inoculation. The data shown in Table 2 represent the average±standard deviation (SD) of three replicate plates for each strain tested. Inoculants of S. homoeocarpa, M. poae, and R. solani generally grow to luxuriant culture, covering the entire surface of the plate (8.5 cm growth) in 7 days.

G. graminis [2] = test: Zone of inhibition assay on PDA plates; type: cell-based, Gaeumannomyces graminis
Protocol: as §1, §2, §3

G. graminis [3] = test: Growth on PDA with calcium propionate fully integrated into the agarose; type: cell-based, Gaeumannomyces graminis
Protocol: In contrast to the zone of inhibition assays described in Examples 1-3, for this experiment, PDA with calcium propionate fully integrated into the agarose was prepared. Thus, inoculants were grown on plates in which calcium propionate was incorporated at a uniform concentration throughout the plate, rather than the zones of concentration established by simple diffusion in the zone of inhibition assays. The PDA plates were amended with 5, 7.5, 10, or 12% (w/v) calcium propionate. Growth diameter was recorded for 15 days post inoculation. The data shown in Table 3 represent the results of single plate tests.

S. homoeocarpa [4] = test: Plug transfer to PDA plates without calcium propionate (fungistatic or fungicidal); type: cell-based, Scerotinia homoeocarpa
G. graminis [5] = test: as above; type: cell-based, Gaeumannomyces graminis
G. graminis [6] = test: New inoculants in MEB liquid culture amended with calcium propionate; type: cell-based, Gaeumannomyces graminis; details: MEB with 1, 2, 5 and 10% (w/v) calcium propionate; five days
Protocol: To examine the effective dose range in liquid culture, malt extract broth (MEB) was prepared and amended with calcium propionate at concentrations of 1, 2, 5 and 10% (w/v). Unamended MEB was used as a control for growth. Each of the four microbes identified in Example 1 was tested twice by inoculating MEB using agarose plugs from luxuriant cultures. Growth was observed over five days. In each microbe examined, visible growth in liquid culture was apparent by day 2 following inoculation with well-established growth by 4 days in the absence of calcium propionate.

M. poae = type: cell-based, Magnaporthe poae
G. graminis [7] = test: Established liquid cultures, two days calcium propionate then washout; type: cell-based, Gaeumannomyces graminis
Protocol: To further examine the impact of calcium propionate on established liquid cultures, MEB was inoculated by plug transfer and cultures were allowed to grow for one to six days. Following this, calcium propionate was added to active cultures to a final concentration of 1%, 2%, or 5% (w/v); control cultures had no calcium propionate. Calcium propionate was then added to established one to six day old cultures and cultures were allowed to grow in the presence of calcium propionate for two days, after which, calcium propionate was washed out and cultures were returned to MEB only. Growth following calcium propionate washout was recorded over 14 days.

F. oxysporum = test: Fungal plugs on YPA or PDA amended with CaP; type: cell-based, Fusarium oxysporum; details: seven days, data not shown
Protocol: Cultures of F. oxysporum were grown on PDA medium until luxuriant. To test the effect of calcium propionate (CaP), fungal plugs were transferred to YPA or PDA amended with CaP and growth was monitored for seven days. YPA plates were amended with 1%, 4%, or 15% CaP.

[8] = 5-12% (w/v) calcium propionate, day 2, average ± SD of three plates
[9] = 5-12% (w/v) calcium propionate, day 3, average ± SD of three plates
[10] = 5-12% (w/v) calcium propionate, day 6, average ± SD of three plates
[11] = 5-12% (w/v) calcium propionate, day 7, average ± SD of three plates
[12] = 5-12% (w/v) calcium propionate, day 10, average ± SD of three plates
[13] = 5-12% (w/v) calcium propionate, day 13, average ± SD of three plates
[14] = wells 0.1-0.5% (w/v) calcium propionate, observed over seven days
[15] = wells 0.5-4% (w/v) calcium propionate, day 2, average ± SD of two plates
[16] = wells 0.5-4% (w/v) calcium propionate, day 5, average ± SD of two plates
[17] = wells 0.5-4% (w/v) calcium propionate, day 7, average ± SD of two plates
[18] = plugs initially grown on 5, 7.5, 10 or 12% (w/v) calcium propionate, observed 14 days
[19] = 1%, 2% or 5% (w/v), established one to six day old cultures, two days

CCC(=O)[O-].CCC(=O)[O-].[Ca+2] [calcium propionate]
growth inhibition in repeated experiments, S. homoeocarpa (S. homoeocarpa [1]; 2-4% (w/v) calcium propionate, repeat, data not shown): mixed
Growth, S. homeocarpa (S. homoeocarpa [1]; [8]): 2.8 ± 0.2 cm
Growth, S. homeocarpa (S. homoeocarpa [1]; [9]): 3.5 ± 0.3 cm
Growth, S. homeocarpa (S. homoeocarpa [1]; [10]): 3.8 ± 0.1 cm
Growth, S. homeocarpa (S. homoeocarpa [1]; [11]): 4.3 ± 0.3 cm
Growth, S. homeocarpa (S. homoeocarpa [1]; [12]): 6.2 ± 0.3 cm
Growth, S. homeocarpa (S. homoeocarpa [1]; [13]): 7.8 ± 0.6 cm
growth inhibition, S. homoeocarpa (S. homoeocarpa [1]; [14]): no growth inhibition was observed
Growth, S. homeocarpa (S. homoeocarpa [1]; [15]): 1.9 ± 0.3 cm
Growth, S. homeocarpa (S. homoeocarpa [1]; [16]): 4.5 ± 0.5 cm
Growth, S. homeocarpa (S. homoeocarpa [1]; [17]): 6.08±0.57 cm
Growth, S. homeocarpa (S. homoeocarpa [1]; wells 0.5-4% (w/v) calcium propionate, day 7, average ± SD of two plates, listed as Cap): 4.5 ± 0.6 cm
growth inhibition, S. homoeocarpa (S. homoeocarpa [1]; wells 0.5-4% (w/v) calcium propionate, seven day growth period): clear growth inhibition
Growth, G. graminis (G. graminis [2]; [8]): 1.2 ± 0.3 cm
Growth, G. graminis (G. graminis [2]; [9]): 2.2 ± 0.3 cm
Growth, G. graminis (G. graminis [2]; [10]): 2.7 ± 0.3 cm
Growth, G. graminis (G. graminis [2]; [11]): 4.0±0.6 cm
Growth, G. graminis (G. graminis [2]; [12]): 5.9 ± 0.5 cm
Growth, G. graminis (G. graminis [2]; [13]): 8.3 ± 0.3 cm
growth inhibition, G. graminis (G. graminis [2]; [14]): no growth inhibition was observed
growth inhibition, G. graminis (G. graminis [2]; wells 0.5-4% (w/v) calcium propionate, 2 and 5 days post inoculation): growth inhibition
growth difference versus control plates, G. graminis (G. graminis [2]; wells 0.5-4% (w/v) calcium propionate, 7 days post inoculation): no growth difference was observed
Growth, G. graminis (G. graminis [2]; [15]): 1.6 ± 0.1 cm
Growth, G. graminis (G. graminis [2]; [16]): 4.7 ± 0.2 cm
Growth, G. graminis (G. graminis [2]; [17]): 7 ± 0.1 cm
Growth, G. graminis (G. graminis [3]; PDA with 5% (w/v) calcium propionate, day 4, single plate): 0 cm
Growth, G. graminis (G. graminis [3]; PDA with 5% (w/v) calcium propionate, day 5, single plate): 0 cm
Growth, G. graminis (G. graminis [3]; PDA with 5% (w/v) calcium propionate, day 8, single plate): 0 cm
Growth, G. graminis (G. graminis [3]; PDA with 5% (w/v) calcium propionate, day 11, single plate): 0 cm
Growth, G. graminis (G. graminis [3]; PDA with 5% (w/v) calcium propionate, day 15, single plate): 0 cm
Growth, G. graminis (G. graminis [3]; PDA with 7.5% (w/v) calcium propionate, day 4, single plate): 0 cm
Growth, G. graminis (G. graminis [3]; PDA with 7.5% (w/v) calcium propionate, day 5, single plate): 0 cm
Growth, G. graminis (G. graminis [3]; PDA with 7.5% (w/v) calcium propionate, day 8, single plate): 0 cm
Growth, G. graminis (G. graminis [3]; PDA with 7.5% (w/v) calcium propionate, day 11, single plate): 0 cm
Growth, G. graminis (G. graminis [3]; PDA with 7.5% (w/v) calcium propionate, day 15, single plate): 0 cm
Growth, G. graminis (G. graminis [3]; PDA with 10% (w/v) calcium propionate, day 4, single plate): 0 cm
Growth, G. graminis (G. graminis [3]; PDA with 10% (w/v) calcium propionate, day 5, single plate): 0 cm
Growth, G. graminis (G. graminis [3]; PDA with 10% (w/v) calcium propionate, day 8, single plate): 0 cm
Growth, G. graminis (G. graminis [3]; PDA with 10% (w/v) calcium propionate, day 11, single plate): 0 cm
Growth, G. graminis (G. graminis [3]; PDA with 10% (w/v) calcium propionate, day 15, single plate): 0 cm
Growth, G. graminis (G. graminis [3]; PDA with 12% (w/v) calcium propionate, day 4, single plate): 0 cm
Growth, G. graminis (G. graminis [3]; PDA with 12% (w/v) calcium propionate, day 5, single plate): 0 cm
Growth, G. graminis (G. graminis [3]; PDA with 12% (w/v) calcium propionate, day 8, single plate): 0 cm
Growth, G. graminis (G. graminis [3]; PDA with 12% (w/v) calcium propionate, day 11, single plate): 0 cm
Growth, G. graminis (G. graminis [3]; PDA with 12% (w/v) calcium propionate, day 15, single plate): 0 cm
Growth, G. graminis (G. graminis [3]; any of the concentrations tested (5, 7.5, 10, 12% w/v), 15 days): no growth
fungistatic or fungicidal effect, S. homoeocarpa (S. homoeocarpa [4]; 5% (w/v) calcium propionate): fungicidal effect
growth on unamended PDA after plug transfer, S. homoeocarpa (S. homoeocarpa [4]; [18]): No growth was seen
fungistatic or fungicidal effect, G. graminis (G. graminis [5]; 5% (w/v) calcium propionate): fungicidal effect
growth on unamended PDA after plug transfer, G. graminis (G. graminis [5]; [18]): No growth was seen
growth in liquid culture, G. graminis (G. graminis [6]): no growth was observed
growth recovery over 14 days after removal, M. poae (M. poae; 1% or 2% (w/v) calcium propionate): varying degrees of growth recovery
growth while calcium propionate was present, M. poae (M. poae; [19]): growth was inhibited
growth recovery over 14 days after removal, M. poae (M. poae; 5% (w/v) treatment): no growth recovery was observed
growth three days following removal of calcium propionate, M. poae (M. poae; all concentrations tested (1-5% w/v)): continued growth inhibition
growth while calcium propionate was present, G. graminis (G. graminis [7]; [19]): growth was inhibited
growth three days following removal of calcium propionate, G. graminis (G. graminis [7]; all concentrations tested (1-5% w/v), data not shown): continued growth inhibition
growth up to two weeks following calcium propionate removal, G. graminis (G. graminis [7]; concentrations as low as 1% (w/v)): no growth was observed
F. oxysporum growth (F. oxysporum; YPA amended with 1% CaP): not impacted
F. oxysporum growth (F. oxysporum; YPA amended with 4% or 15% CaP): unable to grow
